Test [1] relates to MCF7. Kind of test: Cytotoxicity against MCF7 cells assessed as cell viability at 200 uM after 72 hrs by MTT assay. To be noted: Homo sapiens, MCF7, 72 h; read-out: Activity. The class given is functional.
Test [2] concerns MCF7. Kind of test: Cell cycle arrest in MCF7 cells assessed as accumulation at subG1 phase at 200 uM after 48 hrs by flow cytometry. The class given is functional, Homo sapiens.
Test [3] concerns MCF7. Description: Cell cycle arrest in MCF7 cells assessed as accumulation at G0/G1 phase at 200 uM after 48 hrs by flow cytometry. The class given is functional, Homo sapiens.
Test [4] deals with MCF7. Description: Cell cycle arrest in MCF7 cells assessed as accumulation at S phase at 200 uM after 48 hrs by flow cytometry. The class given is functional, Homo sapiens.
Test [5] has as its system MCF7. Description: Cell cycle arrest in MCF7 cells assessed as accumulation at G2/M phase at 200 uM after 48 hrs by flow cytometry. The class given is functional, Homo sapiens.
For test [6], the system named is MCF7. Kind of test: Cell cycle arrest in MCF7 cells assessed as accumulation at subG1 phase at 200 uM after 72 hrs by flow cytometry. The class given is functional, Homo sapiens.
Test [7] deals with MCF7. Kind of test: Cell cycle arrest in MCF7 cells assessed as accumulation at G0/G1 phase at 200 uM after 72 hrs by flow cytometry. The class given is functional, Homo sapiens.
Test [8] has as its system MCF7. Kind of test: Cell cycle arrest in MCF7 cells assessed as accumulation at S phase at 200 uM after 72 hrs by flow cytometry. The class given is functional, Homo sapiens.
The subject of test [9] is MCF7. Kind of test: Cell cycle arrest in MCF7 cells assessed as accumulation at G2/M phase at 200 uM after 72 hrs by flow cytometry. The class given is functional, Homo sapiens.
Test [10] deals with MCF7. Description: Decrease in HER2 expression in MCF7 cells at 200 uM after 18 hrs. The class given is functional, cell-based. The conditions noted are these: Homo sapiens.
Test [11] concerns MCF7. Kind of test: Decrease in Raf1 expression in MCF7 cells at 200 uM after 18 hrs. The class given is functional, cell-based. The conditions noted are these: Homo sapiens.
The test system of test [12] is MCF7. Kind of test: Growth inhibition of MCF7 cells after 72 hrs by MTT assay. The class given is functional, cell-based. The conditions noted are these: Homo sapiens, MCF7, 72 h.
For test [13], the system named is MELN. Kind of test: Inhibition of estradiol-induced ER-mediated transcription in MELN cells by measuring luciferase activity at 200 uM after 18 hrs. The class given is functional, cell-based. The conditions noted are these: Homo sapiens.
Test [14] relates to MCF7. Kind of test: Decrease in cdk4 protein level in MCF7 cells at 200 uM after 18 hrs. The class given is functional, cell-based. The conditions noted are these: Homo sapiens.
Test [15] deals with MELN. Kind of test: Inhibition of basal ER-mediated transcription activity in MELN cells by measuring luciferase activity at 2 uM after 18 hrs. The class given is functional, cell-based. The conditions noted are these: Homo sapiens.
Test [16] has as its system MELN. Description: Inhibition of estradiol-induced ER-mediated transcription in MELN cells by measuring luciferase activity at 2 uM after 18 hrs. The class given is functional, cell-based. To be noted: Homo sapiens.

SMILES strings stand for the structures. Calls of active or inactive are those of the source. No cut-off for these calls is given here.

For `COc1ccc2c(O)c(NC(=O)c3ccc4c(c3)CCC(C)(C)O4)c(=O)oc2c1C`, in the test with MCF7 [1], the viability at 200 µM was 75%. In addition, the Activity is on record as 3.3% in the test with MCF7 [2]; 71.9% with MCF7 [3]; 16.2% with MCF7 [4]; 10.7% in the test with MCF7 [5]; 2.5% in the test with MCF7 [6]; 85.4% in the test on MCF7 [7]. Further, the Activity came to 8.5% in the test with MCF7 [8] and 6.5% in the test with MCF7 [9].

In the case of `COc1ccc2c(OC)c(NC(=O)c3ccc4c(c3)CCC(C)(C)O4)c(=O)oc2c1C`, the viability at 200 µM in the test with MCF7 [1] came to 75%. In addition, the Activity with MCF7 [2] amounted to 7.5%; in the test on MCF7 [3], 56.7%; in the test with MCF7 [4] it was 28.4%; in the test on MCF7 [5], 11.9%; with MCF7 [6] it was 3.8%; with MCF7 [7], 77.8%. Further, the Activity in the test with MCF7 [8] is 14.8%; in the test on MCF7 [9], 7.2%.

For the compound `COc1ccc(-c2c(NC(=O)c3ccc4c(c3)CCC(C)(C)O4)c(=O)oc3c(C)c(OC)ccc23)cc1`, the Activity in the test on MCF7 [2] is recorded as 3.7%; with MCF7 [3] it was 71%; in the test with MCF7 [4] it was 15.3%; with MCF7 [5], 11.5%; in the test on MCF7 [6] it was 4%; in the test on MCF7 [7] it was 81.3%. Also, the results for the Activity in the test on MCF7 [8] and in the test with MCF7 [9] were 9.5% and 7.7%, respectively.

Take `COc1ccc(C(=O)Nc2c(OC)c3ccc(OC)c(C)c3oc2=O)cc1CC=C(C)C`: the result in the test on MCF7 [10] was Active. Besides, the Activity was 3.6% in the test with MCF7 [2]; 73.3% in the test with MCF7 [3]; 14.4% with MCF7 [4]; 10.8% in the test with MCF7 [5]; 3.8% in the test on MCF7 [6]; 82.1% with MCF7 [7]. For the same compound, the Activity is 10.2% in the test with MCF7 [8] and 6.9% in the test with MCF7 [9].

For `Cc1ccc(S(=O)(=O)Oc2ccc3c(-c4ccc(Cl)cc4)c(NC(=O)c4ccc5c(c4)CCC(C)(C)O5)c(=O)oc3c2C)cc1`, the Activity stood at 3.8% in the test with MCF7 [2]; 70.4% with MCF7 [3]; 19.7% in the test with MCF7 [4]; 9.9% in the test with MCF7 [5]; 4.9% in the test on MCF7 [6]; 74.1% in the test on MCF7 [7]. In addition, the values for the Activity with MCF7 [8] and in the test on MCF7 [9] were 17.1% and 7.5%, respectively. The result in the test with MCF7 [11] was Active.

The compound `CO[C@@H]1[C@@H](OC(N)=O)[C@@H](O)[C@H](Oc2ccc3c(O)c(NC(=O)c4ccc(O)c(CC=C(C)C)c4)c(=O)oc3c2C)OC1(C)C` [NOVOBIOCIN] displayed an IC50 in the test with MCF7 [12] of 260 µM. The Activity in the test with MCF7 [2] is given as 5.9%; with MCF7 [3], 59.9%; with MCF7 [4], 19.7%; with MCF7 [5] it was 19.3%; with MCF7 [6], 9.8%; with MCF7 [7] it was 58.3%. The Activity in the test with MCF7 [8] is reported as 21.3%; in the test on MCF7 [9], 19.3%. Besides, the outcome with MELN [13] was Active.

In the case of `Cc1c(O)ccc2c(O)c(NC(=O)c3ccc4c(c3)CCC(C)(C)O4)c(=O)oc12` [CYCLONOVOBIOCIC ACID], the viability at 200 µM with MCF7 [1] came to 75%. The Activity was 7.7% with MCF7 [2]; 46.5% with MCF7 [3]; 36.2% in the test with MCF7 [4]; 14.4% in the test on MCF7 [5]; 6% in the test with MCF7 [6]; 58.1% in the test on MCF7 [7]. The Activity stood at 23.4% in the test on MCF7 [8] and 18.6% in the test with MCF7 [9]. For the same compound, the result in the test on MCF7 [14] was Active.

On to `CC1(C)[C@@H](O)CC[C@]2(C)[C@H]3C(=O)C=C4[C@@H]5C[C@@](C)(C(=O)O)CC[C@]5(C)CC[C@@]4(C)[C@]3(C)CC[C@@H]12`, for which the result in the test with MELN [15] and in the test on MELN [16] was Active.

Source of the values: ChEMBL document CHEMBL1138304, “New novobiocin analogues as antiproliferative agents in breast cancer cells and potential inhibitors of heat shock protein 90” (J Med Chem, 2007).
